The values that follow come from PMC6335623, “A computationally designed binding mode flip leads to a novel class of potent tri-vector cyclophilin inhibitors” (Chemical Science, 2018).

The target in one data set is T1, CypA (Homo sapiens, UniProt P62937).
T1 construct: His-tag (TEV-cleavable) (cleaved yes); made in house; host or cells: E. coli C41 BL21(DE3) ('C41 BL21(DH3)' [sic]); plasmid from the Edinburgh Protein Production Facility
Description: Isothermal titration calorimetry (ITC), ester series, direct titration. Conditions: 25 °C, 50 mM phosphate buffer pH 6.5; single experiments; uncertainties from fit to one-site binding model; n.b. = no binding observed at the maximum concentration tested. The procedure:
The molecular weights of HisCypA and free CypA are 20.893 and 18.070 kDa, respectively. Protein concentration was determined by measuring the absorbance at 280 nm and the extinction coefficients 14440 and 8480 M-1 cm-1, respectively.
Isothermal Titration Calorimetry (ITC)
ITC1 – Ester series: Instrument and experimental setup
All ITC experiments for the ester series compounds were carried out at 25 °C on a MicroCal Auto iTC200 (GE Healthcare) instrument. The buffer used in the titrations of the compounds belonging to the ester series (1 – 12) was 50 mM phosphate buffer, pH 6.5 and the concentration of DMSO was 2% v/v for all the compounds, unless otherwise stated in Table S1. Final compound solutions were heated to 65 °C and/or sonicated prior to the experiment. Each experiment consisted of an initial injection of 0.4 μL followed by nineteen 2 μL injections and in most of cases for these compounds, the “continue injections” protocol was used leaving the cell intact and performing a second series of titrations using the above protocol to achieve saturation. Control experiments were performed, where each compound was titrated into buffer and when small amount of heat was detected due to heat of dilution, it was subtracted when processing the data using a linear fit method. A more detailed setup for each experiment is depicted in Table S6. In all cases the first injection was omitted from the data processing. All data were analysed using the MicroCal PEAQ-ITC […]
(Wiseman constant) is very small, a fixed stoichiometry to 1 was applied during the non-linear regression of […]
the duration of the experiment.
For orientation: Isothermal titration calorimetry measures the heat released or taken up as one component is titrated into another.

In the next data set the target is T2, His-CypD (Homo sapiens, UniProt P30405).
T2 construct: made in house; host or cells: E. coli C41 BL21(DE3) ('C41 BL21(DH3)' [sic]); plasmid from the Edinburgh Protein Production Facility
T2 sequence (P30405 30-207): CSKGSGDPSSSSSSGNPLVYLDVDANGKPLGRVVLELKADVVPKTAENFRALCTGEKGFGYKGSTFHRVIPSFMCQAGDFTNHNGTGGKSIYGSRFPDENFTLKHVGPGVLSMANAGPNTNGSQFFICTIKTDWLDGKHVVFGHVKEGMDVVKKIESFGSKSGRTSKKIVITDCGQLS
Description: Surface plasmon resonance (SPR) kinetic titration, BIAcore T200. Type of data set: binding. Conditions: 25 °C, mean ± 1σ from three repeat experiments. The procedure:
(§1) injection protocol (Fig. S9B). […]
(§2) using the same instrument parameters was performed (Fig. S9A).
(§3) Surface Plasmon Resonance (SPR)
(§4) SPR1 – SPR equipment and reagents
(§5) SPR measurements were performed on a BIAcore T200 instrument (GE Healthcare). Ni2+- nitrilotriacetic acid (NTA) sensor chips, 1-ethyl-3-(3- diaminopropyl) carbodiimide hydrochloride (EDC) and Nhydroxysuccinimide (NHS) were purchased from GE Healthcare.
(§6) SPR2 – Immobilization and covalent stabilizations of His-Cyps
(§7) Pure His-cyclophilins were immobilized and covalently stabilized on the NTA sensor chip according to the protocol described [Wear et al., 2017, FEBS OpenBio], using 200 nM concentrations of each protein, in Running Buffer (PBS, pH 7.4; 0.05% surfactant P20, 2% v/v ethanol; 50 µM EDTA), at 30 µl min-1 with 60 second contact times on the activated NTA surfaces.
(§8) (1 picture or pasted object on this page, not shown here)
(§9) Specific surface protein activity was assayed by passing saturating […]
(§10) SPR3 – Kinetic titration experiments
(§11) Buffer (PBS, pH 7.4, 50 µM mM EDTA; 0.05 % v/v surfactant P20; 2 % v/ v ethanol), were injected over the sensor surface, at 100 µl.min -1 with a 90 s contact time and a 90 s dissociation time. The sensor surface was regenerated between experiments by dissociating any formed complex in running buffer for at least 1,200 seconds. The apparent on-rate (k+) and off-rate (k-) constants and the equilibrium dissociation constant (K d) were calculated from reference corrected sensorgrams by global fitting of a 1:1 binding model, including a mass transport term, using analysis software ( v.2.02, GE Healthcare) provided with the BIAcore T200 […]
(§12) Buffer (PBS, pH 7.4, 50 µM mM EDTA; 0.05 % v/v surfactant P20; 2 % v/v ethanol), were injected over the sensor surface, at 100 µl.min-1 with a 15 s contact time and a 600 s dissociation time. The sensor surface was […]

Another data set addresses T3, His-CypA (Homo sapiens, UniProt P62937).
T3 construct: made in house; host or cells: E. coli C41 BL21(DE3) ('C41 BL21(DH3)' [sic]); plasmid from the Edinburgh Protein Production Facility
The description is as above. Type of data set: binding. The procedure:
as §1, §2, §3, §4, §5, §6, §7, §8, §9, §10, §11, §12

For the next data set, the system named is MDA-MB-231_NLG cells. Description: cells. Type of data set: cell-based. To be noted: 120 hours treatment. The procedure:
The tumorigenic, breast, epithelial adenocarcinoma cell lines MDA-MB-231_NLG and the normal, lung fibroblast cell line, IMR90 were cultured as adherent monolayers in DMEM with 10% volume FBS in an atmosphere with 5% CO2 and 95% humidity and were routinely sub-cultured upon reaching 80-90% confluence. MDA-MB-231_NLG cells are a variant of MDA-MB-231 cells, expressing nuclear-restricted green fluorescent protein; they were produced by stable transduction of MDA-MB-231 cells with NucLight Green lentivirus (Essen Bioscience), following the manufacturer’s protocol.
Image-based Cell Viability Assays
Cells were seeded at a density of 500 cells per well in cell culture medium in 384-well cell culture plates and allowed to adhere overnight (about 16 hours), incubated in a humidified atmosphere with 5% CO2.
Subsequently, cell culture medium was refreshed, supplemented with Draq 7 (3µM final concentration) and test compound at the indicated concentrations with three wells being treated for each condition tested. Cells were then returned to the cell culture incubator and imaged with a 10X objective every 3 hours for 120 hours using an IncuCyte ZOOM microscope from Essen Bioscience.
Using the IncuCyte ZOOM software, custom image analysis procedures were developed and applied for each cell line to determine cell confluency, cell number and number of dead cells over the time course of the experiment. Phase contrast was used to determine relative area of each image occupied by cells (confluency), while green nuclear counts were used to determine number of MDA-MB-231_NLG cells and red nuclear counts were used to determine number of dead (Draq7-positive) cells. […]
growth inhibition) being determined by fitting non-linear regression curves to the data and extrapolating the required values using GraphPad Prism 6. Statistical analyses in cell viability assays to compare the effect of compound treatment to treatment with vehicle were performed using GraphPad Prism 6 (2-way ANOVA with Bonferroni correction post hoc).

In the next data set the target is T4, His-CypB (Homo sapiens, UniProt P23284).
T4 construct: made in house; host or cells: E. coli C41 BL21(DE3) ('C41 BL21(DH3)' [sic]); plasmid from the Edinburgh Protein Production Facility
T4 sequence (P23284 34-216): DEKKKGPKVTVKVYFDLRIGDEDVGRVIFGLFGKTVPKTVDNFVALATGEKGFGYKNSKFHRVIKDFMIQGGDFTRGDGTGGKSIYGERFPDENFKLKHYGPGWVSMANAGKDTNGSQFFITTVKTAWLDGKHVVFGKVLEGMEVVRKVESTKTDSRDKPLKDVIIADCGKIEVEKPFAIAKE
The experiment in a line: biochemical. Type of data set: binding. To be noted: 25 °C, mean ± 1σ from three repeat experiments; read-out: Kd (SPR) CypB. Here is the method:
as §1, §2, §3, §4, §5, §6, §7
(1 picture or pasted object on this page, not shown here) […]
Buffer (PBS, pH 7.4, 50 µM mM EDTA; 0.05 % v/v surfactant P20; 2 % v/ v ethanol), were injected over the sensor surface, at 100 µl.min -1 with a 90 s contact time and a 90 s dissociation time. […] The apparent on-rate (k+) and off-rate (k-) constants and the equilibrium dissociation constant (K d) were calculated from reference corrected sensorgrams by global fitting of a 1:1 binding model, including a mass transport term, using analysis software ( v.2.02, GE Healthcare) provided with the BIAcore T200 […]

Read-outs that look alike come from different tables or passages of the source.

T1 sequence (P62937 whole entry): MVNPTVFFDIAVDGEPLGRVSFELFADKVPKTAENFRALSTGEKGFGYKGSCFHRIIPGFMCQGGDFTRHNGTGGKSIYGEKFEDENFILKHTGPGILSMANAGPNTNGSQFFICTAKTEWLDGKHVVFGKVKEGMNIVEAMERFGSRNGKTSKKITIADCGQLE
T3 sequence (P62937 whole entry): as above

With `CCOC(=O)CNC(=O)N(Cc1ccc(N)cc1)C(C)C.Cl` [Compound 3], the “CypA Kd (ITC)” value at CypA was “n.b and n.b. and inactive”.
Take `CCCN(Cc1ccc(N)cc1)C(=O)NCC(=O)OCC` [Compound 4]: the Kd (usually a measure of binding affinity in units of concentration) at CypA turned out to be 266 ± 3 µM.
For `CCOC(=O)CNC(=O)N(CC#N)Cc1ccc(N)cc1.Cl` [Compound 6], on CypA, the “CypA Kd (ITC)” value is on record as “very weak binders” and the Kd was determined as 993 ± 20 µM.
Regarding `CCOC(=O)CNC(=O)N(Cc1ccc(N)cc1)CC1CC1.Cl` [Compound 7], at CypA, the “CypA Kd (ITC)” value was “n.b and n.b. and very weak binders”.
Still for that read-out and setting: next, `CCOC(=O)CNC(=O)N(Cc1ccc(N)cc1)C1CCNCC1.Cl.Cl` [Compound 11]: “n.b and n.b. and inactive”.
Turning to `C#CCN(Cc1ccc(N)cc1)C(=O)NCC(=O)N1CCCC1c1ccccc1Br` (stereo not drawn) [Compound 13], the Kd on His-CypD came out at 0.2 ± 0.1 µM; at His-CypA (25 °C, mean ± 1σ from three repeat experiments, read-out: Kd (SPR) CypA), 3.2 ± 1.3 µM; on His-CypB, 1.4 ± 0.4 µM. Further, the “cell death (dead cells)” value in the data set with MDA-MB-231_NLG cells is reported as “Negligible cell death”. In addition, the GI50 (as a rule, the concentration that inhibits growth by half) in the data set on MDA-MB-231_NLG cells (Homo sapiens, mean with 95% CI [lower limit, upper limit], three independent experiments, read-out: GI50, growth inhibition) turned out to be 5.13 µM.
For the compound `Cl.Cn1cc(CN(Cc2ccc(N)cc2)C(=O)NCC(=O)N2CCCC2c2ccccc2Br)nn1` (stereo not drawn) [Compound 14], in the data set with MDA-MB-231_NLG cells (mean with 95% CI [lower limit, upper limit], three independent experiments), the “GI50, growth inhibition” value is “inactive”.
Consider `CCOC(=O)Cn1cc(CN(Cc2ccc(N)cc2)C(=O)NCC(=O)N2CCCC2c2ccccc2Br)nn1` (stereo not drawn) [Compound 16], for which the Kd on His-CypD was found to be 1 ± 0.4 µM; on His-CypA it was 4.3 ± 1 µM; at His-CypB it was 1.9 ± 0.9 µM.
